Measured values taken from patent US20090264401A1, “SUBSTITUTED PYRIMIDIN-5-CARBOXAMIDES 281” (AstraZeneca AB, priority 2008, published 2009).

What follows are molecules tested against T1, human 11βHSD1 enzyme (Homo sapiens, UniProt P28845) (assay: 11βHSD1 cortisone to cortisol conversion, competitive HTRF assay). Conditions: human 11-βHSD; test concentration of 30 μM of compound.
T1 construct: baculovirus expressed N terminal 6-His tagged full length human 11βHSD1 enzyme; 6-His (N); made in house
T1 sequence (P28845 whole entry): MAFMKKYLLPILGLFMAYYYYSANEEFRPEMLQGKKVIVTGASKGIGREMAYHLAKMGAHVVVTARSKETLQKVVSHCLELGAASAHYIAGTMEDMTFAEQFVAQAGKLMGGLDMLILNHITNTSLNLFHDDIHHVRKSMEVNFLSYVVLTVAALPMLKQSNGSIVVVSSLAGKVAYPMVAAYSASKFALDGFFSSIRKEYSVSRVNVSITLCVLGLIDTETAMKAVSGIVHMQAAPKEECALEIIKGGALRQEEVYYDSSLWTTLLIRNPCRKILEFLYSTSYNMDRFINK
Format: biochemical
In short: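 Enzyme was baculovirus-expressed, N-terminal 6-His-tagged full-length human 11βHSD1, purified on a copper chelate column. Compounds were added in buffer containing 1% DMSO at 10-fold final concentration.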

inhibition at 30 µM | SMILES
98.5% | O=C(N[C@H]1C2CC3CC1C[C@@](O)(C3)C2)c1cnc(N2CCCS(=O)(=O)CC2)nc1C1CC1 [Example 45, 4-Cyclopropyl-2-(1,1-dioxo-1,4-thiazepan-4-yl)-N-[(2r,5s)-5-hydroxyadamantan-2-yl]pyrimidine-5-carboxamide]
98.8% | O=C(N[C@H]1C2CC3CC1C[C@@](O)(C3)C2)c1cnc(N[C@H]2CCOC2)nc1C1CCCC1 [Example 144, 4-cyclopentyl-N-[(2r,5s)-5-hydroxyadamantan-2-yl]-2-[[(3S)-oxolan-3-yl]amino]pyrimidine-5-carboxamide]
97% | O=C(N[C@H]1C2CC3CC1C[C@@](O)(C3)C2)c1cnc(N2CCOCC2)nc1N1CCOCC1 [compound 32]
93.1% | O=C(N[C@H]1C2CC3CC1C[C@@](O)(C3)C2)c1cnc(N2CCOC(CO)C2)nc1C1CCC1 (some centres unmarked) [Example 93, 4-cyclobutyl-N-[(2r,5s)-5-hydroxyadamantan-2-yl]-2-[2-(hydroxymethyl)morpholin-4-yl]pyrimidine-5-carboxamide]
95.1% | O=C(N[C@H]1C2CC3CC1C[C@@](O)(C3)C2)c1cnc(N2CCOCC2CO)nc1C1CC1 (some centres unmarked) [Example 60, 4-cyclopropyl-N-[(2r,5s)-5-hydroxyadamantan-2-yl]-2-[3-(hydroxymethyl)morpholin-4-yl]pyrimidine-5-carboxamide]
92% | O=C(N[C@H]1C2CC3CC1C[C@@](O)(C3)C2)c1cnc(C2CC2)nc1C1CCCC1 [Example 149, 4-Cyclopentyl-2-cyclopropyl-N-[(2r,5s)-5-hydroxyadamantan-2-yl]pyrimidine-5-carboxamide]
95.2% | O=C(N[C@H]1C2CC3CC1C[C@@](O)(C3)C2)c1cnc(N2CC[S+]([O-])CC2)nc1C1CCC1 [Example 82, 4-Cyclobutyl-N-[(2r,5 s)-5-hydroxyadamantan-2-yl]-2-(1-oxo-1,4-thiazinan-4-yl)pyrimidine-5-carboxamide]
92.5% | O=C(N[C@H]1C2CC3CC1C[C@@](O)(C3)C2)c1cnc(N2CC(F)(F)C2)nc1C1CC1 [Example 52, 4-cyclopropyl-2-(3,3-difluoroazetidin-1-yl)-N-[(2r,5s)-5-hydroxyadamantan-2-yl]pyrimidine-5-carboxamide]
95.7% | O=C(NC1C2CC3CC1CC(O)(C3)C2)c1cnc(N2C[C@@H]3C[C@H]2CO3)nc1C1CCC1 (stereo partly drawn) [Example 103, 4-cyclobutyl-N-[(2r,5s)-5-hydroxyadamantan-2-yl]-2-[(1S,4S)-2-oxa-5-azabicyclo[2.2.1]hept-5-yl]pyrimidine-5-carboxamide]
99.6% | O=C(N[C@H]1C2CC3CC1C[C@@](O)(C3)C2)c1cnc(N2C[C@@H]3C[C@H]2CO3)nc1C1CC1 [Example 58, 4-cyclopropyl-N-[(2r,5s)-5-hydroxyadamantan-2-yl]-2-[(1S,4S)-2-oxa-5-azabicyclo[2.2.1]hept-5-yl]pyrimidine-5-carboxamide]
112% | O=C(NC1C2CC3CC(C2)CC1C3)c1cnc(N2CCOCC2)nc1C1CC1 (centres unmarked) [Example 13, N-(2-adamantyl)-4-cyclopropyl-2-morpholino-pyrimidine-5-carboxamide]
90.2% | O=C(N[C@H]1C2CC3CC1C[C@@](O)(C3)C2)c1cnc(NC2CC2)nc1C1CC1 [Example 56, 4-cyclopropyl-2-(cyclopropylamino)-N-[(2r,5s)-5-hydroxyadamantan-2-yl]pyrimidine-5-carboxamide]

Continued, molecule first:

SMILES | inhibition at 30 µM
CC(C)(C)c1nc(N2CCOCC2)ncc1C(=O)NC1C2CC3CC(C2)CC1C3 (centres unmarked) [Example 14, N-(2-Adamantyl)-4-tert-butyl-2-morpholin-4-ylpyrimidine-5-carboxamide] | 108%
CC(C)Oc1ncc(C(=O)N[C@H]2C3CC4CC2C[C@@](O)(C4)C3)c(C2CCCC2)n1 [Example 110, 4-cyclopentyl-N-[(2r,5s)-5-hydroxyadamantan-2-yl]-2-propan-2-yloxypyrimidine-5-carboxamide] | 100%
CCCSc1nc(N2C[C@@H](C)O[C@@H](C)C2)ncc1C(=O)N[C@H]1C2CC3CC1C[C@@](O)(C3)C2 [Example 23, 2-[(2s,6r)-2,6-Dimethylmorpholin-4-yl]-N-[(2r,5s)-5-hydroxyadamantan-2-yl]-4-propylsulfanylpyrimidine-5-carboxamide] | 97.4%
Cc1ncc(C(=O)N[C@H]2C3CC4CC2C[C@@](O)(C4)C3)c(OC2CCC2)n1 [Example 203, 4-Cyclobutyloxy-N-[(2r,5 s)-5-hydroxyadamantan-2-yl]-2-methylpyrimidine-5-carboxamide] | 98.6%
CC(C)Oc1nc(NC2CCC2)ncc1C(=O)N[C@H]1C2CC3CC1C[C@@](O)(C3)C2 [Example 217, 2-(cyclobutylamino)-N-[(2r,5s)-5-hydroxytricyclo[3.3.1.13,7]dec-2-yl]-4-(1-methylethoxy)pyrimidine-5-carboxamide] | 94.2%
O=C(N[C@H]1C2CC3CC1C[C@@](O)(C3)C2)c1cnc(OC2CCC2)nc1C1CC1 [Example 75, 2-(Cyclobutyloxy)-4-cyclopropyl-N-[(2r,5 s)-5-hydroxyadamantan-2-yl]pyrimidine-5-carboxamide] | 98.6%
O=C(N[C@H]1C2CC3CC1C[C@@](O)(C3)C2)c1cncnc1C1CC1 [Example 3, 4-cyclopropyl-N-[(2r,5s)-5-hydroxyadamantan-2-yl]pyrimidine-5-carboxamide] | 106%
CCOc1nc(NC2COC2)ncc1C(=O)N[C@H]1C2CC3CC1C[C@@](O)(C3)C2 [Example 211, 4-ethoxy-N-[(2r,5s)-5-hydroxytricyclo[3.3.1.13,7]dec-2-yl]-2-(oxetan-3-ylamino)pyrimidine-5-carboxamide] | 98.4%
CCCSc1nc(N2CCC[C@@H](CC(=O)OC)C2)ncc1C(=O)NC1CCCCC1 [Example 19, (S)-Methyl 2-(1-(5-(cyclohexylcarbamoyl)-4-(propylthio)pyrimidin-2-yl)piperidin-3-yl)acetate] | 100%
CC(C)Nc1ncc(C(=O)N[C@H]2C3CC4CC2C[C@@](O)(C4)C3)c(C2CCCC2)n1 [Example 121, 4-cyclopentyl-N-[(2r,5s)-5-hydroxyadamantan-2-yl]-2-(propan-2-ylamino)pyrimidine-5-carboxamide] | 104%
CCOc1nc(NC2CCC2)ncc1C(=O)N[C@H]1C2CC3CC1C[C@@](O)(C3)C2 [Example 212, 2-(cyclobutylamino)-4-ethoxy-N-[(2r,5s)-5-hydroxytricyclo[3.3.1.13,7]dec-2-yl]pyrimidine-5-carboxamide] | 105%
Cc1ncc(C(=O)N[C@H]2C3CC4CC2C[C@@](O)(C4)C3)c(-c2ccccc2Cl)n1 [Example 189, 4-(2-Chlorophenyl)-N-[(2r,5s)-5-hydroxyadamantan-2-yl]-2-methylpyrimidine-5-carboxamide] | 95.5%
O=C(N[C@H]1C2CC3CC1C[C@@](O)(C3)C2)c1cnc(NC2CCC2)nc1C1CCCO1 (some centres unmarked) [Example 162, 2-(cyclobutylamino)-N-[(2r,5s)-5-hydroxyadamantan-2-yl]-4-(oxolan-2-yl)pyrimidine-5-carboxamide] | 97.7%

Same assay, conditions: recombinant N terminal 6-His tagged full length human 11βHSD1; cortisone 160 nM; 25 minutes at 37° C.

IC50 | SMILES
220 nM | O=C(N[C@H]1C2CC3CC1C[C@@](O)(C3)C2)c1cnc(N2CCOCC2)nc1N1CCOCC1 [compound 32]
14 nM | O=C(NC1C2CC3CC(C2)CC1C3)c1cnc(N2CCOCC2)nc1C1CC1 (centres unmarked) [Example 13, N-(2-adamantyl)-4-cyclopropyl-2-morpholino-pyrimidine-5-carboxamide]

The next lines start with the molecule.

SMILES | IC50
O=C(N[C@H]1C2CC3CC1C[C@@](O)(C3)C2)c1cncnc1C1CC1 [Example 3, 4-cyclopropyl-N-[(2r,5s)-5-hydroxyadamantan-2-yl]pyrimidine-5-carboxamide] | 370 nM
CCCSc1nc(N2CCC[C@@H](CC(=O)OC)C2)ncc1C(=O)NC1CCCCC1 [Example 19, (S)-Methyl 2-(1-(5-(cyclohexylcarbamoyl)-4-(propylthio)pyrimidin-2-yl)piperidin-3-yl)acetate] | 14 nM
